Where two headings read alike, the source gives them in different places. Each block holds one compound with its values, some of them ahead of it.
Columns and labels:
[1] = target: recombinant α-syn fibrils (Homo sapiens, UniProt P37840); experiment: Radioligand binding displacement of [^3H]-α-syn-tool on α-syn fibrils; conditions: 5 nM [^3H]-α-syn-tool
Experimental: Compound affinity for α-syn fibrils was measured by means of radioligand binding displacement experiments of an AbbVie tool radioligand with high affinity for α-syn fibrils ([^3H]-α-syn-tool). The aggregation of α-syn monomers into fibrils was obtained as described by Bousset et al.. In brief, monomers (5 mg/mL, prepared in AbbVie (Worcester, MA, USA) were incubated in 150 mM of KCl and 50 mM of Tris-HCl (pH 7.5) for 7 days at 37 °C, under constant shaking conditions (650 rpm, Eppendorf Thermomixer C, Eppendorf, Hamburg, Germany). After incubation, the fibrils were harvested via ultra-centrifugation (40,100× g, 30 min, 20 °C), resuspended in buffer, sonicated (40% amplitude, 10 s pulse on, 5 s pulse off) for 4.5 min at 20 °C, divided into aliquots (5.5 mg/mL), and stored at −80 °C until the day of the experiment. The characterization of the fibrils included protein content determination (BCA method) and an analysis of Proteinase K degradation pattern.
On the day of the experiment, α-syn fibrils were thawed for a few minutes at 37 °C, diluted in Dulbecco’s Phosphate Buffered Saline (PBS) without calcium and magnesium, pH = 7.4 (DPBS) plus 0.1% bovine serum albumin (BSA), and incubated (at the final fibrils concentration of 2.5 µg/mL) for 60 min, at room temperature (RT), with 5 nM [^3H]-α-syn-tool, in the absence or presence of different concentrations of non-radiolabeled compounds. Bound radioligand was separated from free radioligand via rapid filtration and washings with cold DPBS, using a Unifilter-96 GF/B filter plate (PerkinElmer, Rodgau, Germany) presoaked in 0.3% polyethylenimmine (PEI) and a Unifilter Cell Harvester (PerkinElmer, Rodgau, Germany). Plates were air-dried, and the scintillation liquid (Betaplate Scint, PerkinElmer) was added and counted using a MicroBeta2 2450 (Perkinelmer, Rodgau, Germany). Non-specific binding (NSB) was defined as the binding in the presence of 10 µM unlabeled α-syn tool. Data fitting and the constant of inhibition (Ki) calculation was performed using the software platform from Dotmatics (Boston, MA, USA).

[2] = target: Aβ fibrils (Homo sapiens, UniProt P05067); experiment: [^3H]PiB binding displacement on AD brain homogenates; conditions: AD brain homogenate, 1 nM [^3H]PiB
Experimental: (§1) Compounds’ affinity for tau and Aβ fibrils was measured by means of radioligand binding displacement experiments on AD brain homogenates, using [^3H]NFT-355 [8] (AbbVie, North Chicago, IL, USA) and [^3H]Pittsburg Compound-B (PiB; Novandi Chemistry AB, Södertälje, Sweden) to label tau and Aβ aggregates, respectively. Flash-frozen tissue from the frontal cerebral cortex of an AD (Braak stage V) brain was purchased from Analytical Biological Services Inc. (ABS; Wilmington, DE, USA), homogenized in DPBS, divided into aliquots (10 mg/mL), and stored at −80 °C until the day of the experiment.
(§2) On the day of the experiment, the brain homogenate was brought to RT, diluted in DPBS plus 0.1% BSA and incubated for 90 min, at RT, with 0.5 nM [^3H]NFT-355 or 1 nM [^3H]PiB, in the absence or presence of different concentrations of non-radiolabeled compounds. Bound radioligand was separated from free radioligand via rapid filtration and washings with cold DPBS, using a Unifilter-96 GF/B filter plate (presoaked in 0.3% PEI) and a Unifilter Cell Harvester (PerkinElmer). Plates were air-dried, and the scintillation liquid (Betaplate Scint, PerkinElmer) was added and counted using a MicroBeta2 2450. NSB was defined as the binding in the presence of 10 µM T808 [10] (AbbVie Germany) and 10 µM PiB for [^3H]NFT-355 and [^3H]PiB, respectively. Data fitting was performed using the software platform from Dotmatics (Boston, MA, USA).

[3] = target: tau fibrils (Homo sapiens, UniProt P10636); experiment: [^3H]NFT-355 binding displacement on AD brain homogenates; conditions: AD brain homogenate, 0.5 nM [^3H]NFT-355
Experimental: as §1, §2

[4] = tested on: fresh-frozen human brain sections; experiment: Autoradiography on fresh-frozen brain tissue sections; type: binding; conditions: for NSB: 5 µM GMC044; for NSB / Total Minus NSB / Total binding: gray matter of cingulate cortex, control C03; for Binding displaced by GMC-044: 5 µM GMC-044, control cingulate cortex tissue; for Binding in control tissue: cingulate cortex of healthy controls
Experimental: Selections of frozen human sections (described in Table 2 and Table 3) were used for binding autoradiography. Sections were first pre-incubated for 20 min in binding buffer [50 mM Tris-HCl (pH 7.4), 120 mM NaCl, 5 mM KCl, 2 mM CaCl2, 1 mM MgCl2, and 0.1% BSA] and then incubated with [^3H]GMC-058 (specific activity 22 Ci/mmol); [^3H]GMC-073 (specific activity 23.4 Ci/mmol); or […] in binding buffer for 180 min at RT. In the pilot autoradiography experiment (Figure A1). [^3H]GMC-058 was tested at 25 and 50 nM, while [^3H]GMC-073 and [^3H]GMC-098 were each tested at 10 and 20 nM. For all other autoradiography in fresh-frozen tissue sections, 25 nM [^3H]GMC-058 was used. To determine NSB, adjacent brain sections were incubated with [^3H]-tracer mixed with 5 μM of unlabeled GMC-044. The binding reaction was stopped with two 10 min washes in washing buffer [50 mM Tris-HCl (pH 7.4) at 4 °C] and a brief dip in cold distilled water. Slides were allowed to air-dry before being placed under storage phosphor screens (Fujifilm Plate BAS-TR2025, Fujifilm, Tokyo, Japan) in imaging cassettes for 90 h together with ART0123C and ART0123B tritium standards on glass slides (American Radiolabeled Chemicals Inc., St. Louis, MO, USA). Storage phosphor screens were scanned using an Amersham Typhoon FLA-9500 phosphor imaging scanner (Cytiva, Marlborough, MA, USA), and the resulting images were analyzed using Multi Gauge 3.2 phosphor imager software (Fujifilm, Tokyo, Japan) for ROI delimitation, density calibration, and quantification. Quantitative binding data from duplicates of the total, and NSB were plotted and analyzed using graphPad Prism v10 (GraphPad Software, Boston, MA, USA). Specific binding was determined by subtracting the non-specific signal from the total signal. The toluidine blue staining of adjacent sections was used to obtain anatomical references for white- and gray-matter ROI selection. Care was taken not to include artifact signals in the ROIs analyzed. These artifacts were identified as randomly placed punctate signals appearing in both total and NSB images, and they often coincided with small folds or tears in the tissue sections.

[5] = target: α-syn; conditions: cited from earlier work
[6] = target: Aβ; conditions: AD; read-out: IC50 or KD Aβ; cited from earlier work
[7] = target: pTau; conditions: AD; read-out: IC50 or KD pTau; cited from earlier work

tau fibrils, sequence (P10636 623-708 limits assumed): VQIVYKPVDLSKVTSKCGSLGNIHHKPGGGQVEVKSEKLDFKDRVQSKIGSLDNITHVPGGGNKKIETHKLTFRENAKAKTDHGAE
Aβ fibrils, sequence (P05067 672-711 limits assumed): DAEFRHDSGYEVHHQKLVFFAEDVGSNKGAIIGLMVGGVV

Structure (SMILES): COc1ccc(/C=C/c2ccc(N3CCN(c4ccc(C#N)cn4)CC3)cc2)cn1 [GMC013_FR-1]
Ki [1]: 25.5 nM | Ki [2]: 63 nM | Ki [3]: 151 nM

Structure (SMILES): O=C(Nc1ccc(N2CCN(Cc3ccc(Cl)c(Cl)c3)CC2)cc1)c1cnccn1 [GMC021]
Ki [1]: 22.2 nM | Ki [2]: 889 nM | Ki [3]: 2510 nM

Structure (SMILES): COc1ccccc1CC(=O)Nc1ccc(N2CCN(c3ccc(C#N)cn3)CC2)cc1 [GMC023]
Ki [1]: 21.2 nM | Ki [2]: 151 nM | Ki [3]: 44 nM

Structure (SMILES): COc1cccc(CC(=O)Nc2ccc(N3CCN(c4ccc(C#N)cn4)CC3)cc2)c1 [GMC024]
Ki [1]: 25.3 nM | Ki [2]: 81 nM | Ki [3]: 68 nM

Structure (SMILES): COc1ccc(CC(=O)Nc2ccc(N3CCN(c4ccc(C#N)cn4)CC3)cc2)cc1 [GMC025]
Ki [1]: 29.7 nM | Ki [2]: 141 nM | Ki [3]: 50 nM

Structure (SMILES): C[C@@H](C(=O)Nc1ccc(N2CCN(c3ccc(C#N)cn3)CC2)cc1)c1ccccc1 [GMC044]
Ki [1]: 25.2 nM | Ki [2]: 3440 nM | Ki [3]: 692 nM

Structure (SMILES): COc1ccccc1NC(=O)Nc1ccc(N2CCN(c3ccccn3)CC2)cc1 [GMC070]
Ki [1]: 6.8 nM | Ki [2]: 64 nM | Ki [3]: 90 nM

Structure (SMILES): COc1ccccc1CC(=O)Nc1ccc(N2CCN(c3ccc(F)cc3)CC2)nc1 [GMC079]
Ki [1]: 23.9 nM | Ki [2]: 404 nM | Ki [3]: 2510 nM

Structure (SMILES): COc1ccccc1CC(=O)Nc1ccc(N2CCN(c3ccc(F)cc3)CC2)cc1C#N [GMC086]
Ki [1]: 15.2 nM | Ki [2]: 809 nM | Ki [3]: 26 nM

Structure (SMILES): COc1ccc(N2CCN(c3ccc(NC(=O)C(C)(C)C)cc3)CC2)cc1 [GMC-058]
Ki [1]: 22.5 nM | Ki [2]: 1490 nM | Ki [3]: 1320 nM

Structure (SMILES): COc1ccccc1NC(=O)Nc1ccc(N2CCN(c3ccc(F)cc3)CC2)c(C#N)c1 [GMC-073]
Ki [1]: 8 nM | Ki [2]: 2630 nM | Ki [3]: 248 nM

Structure (SMILES): [3H]c1cccc(NC(=O)Nc2ccc(N3CCN(c4ccc(F)cc4)CC3)c(C#N)c2)c1OC [[^3H]GMC-073, 1-(3-cyano-4-(4-(4-fluorophenyl)piperazin-1-yl)phenyl)-3-(2-methoxy-[3-3H]-phenyl)urea]
NSB ([4]; 10 nM radioligand): 346.9 ± 14.5 fmol/mg tissue equivalent | Total Minus NSB ([4]; 10 nM radioligand): 318 fmol/mg | Total binding ([4]; 10 nM radioligand): 664.6 ± 24.3 fmol/mg tissue equivalent | NSB ([4]; 20 nM radioligand): 1022 ± 45 fmol/mg tissue equivalent | Total Minus NSB ([4]; 20 nM radioligand): 848 fmol/mg | Total binding ([4]; 20 nM radioligand): 1870 ± 100.2 fmol/mg tissue equivalent | Binding displaced by GMC-044 [4]: approximately 50% | Binding in control tissue [4]: clear binding

Structure (SMILES): O=C1c2cn(-c3ccc(N4CC[C@@H](F)C4)nc3)nc2CN1c1cccnc1 [[^18F]ACI-12589]
Kd ([5]; MSA, read-out: IC50 or KD α-syn (converted)): 28 nM | Kd ([5]; PD and MSA tissue, read-out: KD): ~30 nM | Kd ([5]; sporadic PD, read-out: IC50 or KD α-syn (converted)): 33.5 ± 17.4 nM | Kd [6]: 317 nM | Kd [7]: 317 nM

Structure (SMILES): CNc1cnc(C#C/C=C/c2nc3ccc(OCC(O)CF)cc3s2)cn1 (centres unmarked) [[^18F]SPAL-T-06]
IC50 ([5]; MSA, read-out: IC50 or KD α-syn): 2.5 nM | IC50 ([5]; brain homogenates from DLB or MSA cases, homologous competition binding studies, read-out: IC50): 2 to 3 nM

The next lines start with results.

Ki [1]: 28.3 nM | Ki [2]: 294 nM | Ki [3]: 761 nM
Structure (SMILES): COc1ccc(-c2ccc(NC(=O)N3CCN(c4ccccn4)CC3)cc2C#N)cc1 [GMC015]

Ki [1]: 14.2 nM | Ki [2]: 8180 nM | Ki [3]: 86 nM
Structure (SMILES): COc1ccccc1NC(=O)Nc1ccc(N2CCN(c3ccccn3)CC2)c(C#N)c1 [GMC071]

Ki [1]: 14.5 nM | Ki [2]: 2630 nM | Ki [3]: 2510 nM
Structure (SMILES): COc1ccc(-c2ccc(NC(=O)N3CCN(c4ccc(C#N)cn4)CC3)cc2C#N)cc1 [GMC095]

Ki [1]: 6.5 nM | Ki [2]: 51 nM | Ki [3]: 2510 nM
Structure (SMILES): COc1ccc(-c2ccc(NC(=O)N3CCN(c4ccc(OC)cc4)CC3)cc2C#N)cc1 [GMC096]

Ki [1]: 9.7 nM | Ki [2]: 226 nM | Ki [3]: 805 nM
Structure (SMILES): COc1ccc(-c2ccc(NC(=O)N3CCN(c4ccccc4)CC3)cc2C#N)cc1 [GMC-098]

Total binding ([4]; 10 nM radioligand): 2705 ± 62.2 fmol/mg tissue equivalent | Total binding ([4]; 20 nM radioligand): 5146 ± 386.2 fmol/mg tissue equivalent | Binding displaced by GMC-044 [4]: approximately 50% | Binding in control tissue [4]: clear binding
Structure (SMILES): [3H]c1ccc(N2CCN(C(=O)Nc3ccc(-c4ccc(OC)cc4)c(C#N)c3)CC2)cc1 [[^3H]GMC-098, N-(2-cyano-4′-methoxy-[1,1′-biphenyl]-4-yl)-4-([4-3H]phenyl)piperazine-1-carboxamide]
NSB ([4]; 10 nM radioligand): 1878 ± 74.1 fmol/mg tissue equivalent | Total Minus NSB ([4]; 10 nM radioligand): 827 fmol/mg | NSB ([4]; 20 nM radioligand): 2336 ± 48.5 fmol/mg tissue equivalent | Total Minus NSB ([4]; 20 nM radioligand): 2810 fmol/mg
